One assay has as its target NAMPT (Homo sapiens, UniProt P43490). The assay is described as follows: TR-FRET Binding Assay of NAMPT with PRPP. The conditions noted are these: with 200 μM PRPP and 2.5 mM ATP; 2 nM NAMPT, 2 nM probe, 16 hours equilibration. The method in brief:
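NAMPT 2 nM + probe 2 nM + Tb-anti-His Ab 1 nM; PRPP 200 μM, ATP 2.5 mM, DMSO 2%; 16 h equilibration before TR-FRET read.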

Assay [1] concerns the target NAMPT (human, recombinant, C-terminally His-tagged) (Homo sapiens, UniProt P43490). The assay is described as follows: Time-Resolved Fluorescence Resonance Energy Transfer (TR-FRET) Binding Assay of NAMPT. The conditions noted are these: without substrates; 6.8 nM NAMPT, 200 nM probe, 3 hours equilibration. Summed up:
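Read-out is the time-resolved FRET ratio Em520/Em495 (excitation 337 nm) between a terbium anti-His antibody (1 nM) on the enzyme and an Oregon Green 488-labelled nicotinamide-competitive inhibitor probe (200 nM). Enzyme was 6.8 nM, DMSO 2%, pH 7.5 HEPES buffer; 3 h room-temperature equilibration preceded reading.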
On the technique in general: TR-FRET usually uses a lanthanide donor and a delayed reading to cut background.

The subject of the next assay is PC3 cells. The assay is described as follows: NAMPT Cell Proliferation Assay. In kind it is cell-based. The conditions noted are these: Homo sapiens, PC-3, 120 h, 5 days incubation, cell viability by Cell Titer Glo. Summed up:
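IC50 values derive from sigmoidal dose-response fits of percent inhibition of PC3 viability, measured by luminescence after 5 days of compound treatment. Cells (500/well, RPMI containing 10% heat-inactivated FBS) are allowed to attach overnight, and compounds are tested at 10-fold dilutions between 10 μM and 1×10^−5 μM.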
(In general: In ATP-based viability assays light output follows the ATP content of the culture.)

Chain of NAMPT (P43490 whole entry): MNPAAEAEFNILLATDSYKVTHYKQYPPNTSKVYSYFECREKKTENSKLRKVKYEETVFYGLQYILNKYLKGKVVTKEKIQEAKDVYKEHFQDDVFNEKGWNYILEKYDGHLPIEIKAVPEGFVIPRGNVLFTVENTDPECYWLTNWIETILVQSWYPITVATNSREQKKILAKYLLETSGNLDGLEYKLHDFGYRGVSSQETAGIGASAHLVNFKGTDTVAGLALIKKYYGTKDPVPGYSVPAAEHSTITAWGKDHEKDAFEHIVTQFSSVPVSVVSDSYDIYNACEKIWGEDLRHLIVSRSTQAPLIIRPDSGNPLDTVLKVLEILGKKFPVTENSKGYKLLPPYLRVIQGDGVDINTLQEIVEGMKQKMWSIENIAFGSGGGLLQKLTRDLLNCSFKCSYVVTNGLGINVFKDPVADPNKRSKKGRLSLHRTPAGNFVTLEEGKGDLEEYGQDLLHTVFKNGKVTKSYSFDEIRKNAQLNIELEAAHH
Chain of NAMPT (human, recombinant, C-terminally His-tagged) (P43490 whole entry): as above

As a reminder, the IC50 is the concentration that gives 50% inhibition. As to `CCC(=O)C(=O)N1CCC(c2ccc(C(=O)NCc3ccn4ccnc4c3)cc2)CC1` [Example 518, N-(imidazo[1,2-a]pyridin-7-ylmethyl)-4-[1-(2-oxobutanoyl)piperidin-4-yl]benzamide], the IC50 at NAMPT amounted to 0.169 nM; in assay [1], 234 nM; with PC3 cells it was 34.8 nM.

Regarding `Cc1cc(C(=O)N2CCC(c3ccc(C(=O)NCc4ccn5ccnc5c4)cc3)CC2)c(C)o1` [Example 519, 4-{1-[(2,5-dimethylfuran-3-yl)carbonyl]piperidin-4-yl}-N-(imidazo[1,2-a]pyridin-7-ylmethyl)benzamide], the figures for the concentration for half-maximal inhibition (IC50) (on NAMPT; in assay [1]; with PC3 cells) were 0.338 nM, 218 nM and 60.9 nM, respectively.

For `N#Cc1ccc(C(=O)N2CCC(c3ccc(C(=O)NCc4ccn5ccnc5c4)cc3)CC2)cc1` [Example 520, 4-[1-(4-cyanobenzoyl)piperidin-4-yl]-N-(imidazo[1,2-a]pyridin-7-ylmethyl)benzamide], the IC50 on NAMPT is 0.301 nM; in assay [1], 565 nM; in the assay on PC3 cells it was 101 nM.

Consider `N#Cc1cccc(C(=O)N2CCC(c3ccc(C(=O)NCc4ccn5ccnc5c4)cc3)CC2)c1` [Example 521, 4-[1-(3-cyanobenzoyl)piperidin-4-yl]-N-(imidazo[1,2-a]pyridin-7-ylmethyl)benzamide], for which the figures for the IC50 (at NAMPT; in assay [1]; with PC3 cells) were 0.292 nM, 413 nM and 93.5 nM, respectively.

Take `O=C(NCc1ccn2ccnc2c1)c1ccc(C2CCN(C(=O)c3cc(F)ccc3F)CC2)cc1` [Example 522, 4-[1-(2,5-difluorobenzoyl)piperidin-4-yl]-N-(imidazo[1,2-a]pyridin-7-ylmethyl)benzamide]: the IC50 on NAMPT worked out at 0.199 nM; in assay [1], 58.1 nM; in the assay on PC3 cells, 6.73 nM.

On to `O=C(NCc1ccn2ccnc2c1)c1ccc(C2CCN(C(=O)c3cnccn3)CC2)cc1` [Example 523, N-(imidazo[1,2-a]pyridin-7-ylmethyl)-4-[1-(pyrazin-2-ylcarbonyl)piperidin-4-yl]benzamide], for which the IC50 is 0.422 nM at NAMPT, 343 nM in assay [1] and 17.1 nM with PC3 cells.

`Cc1ccsc1C(=O)N1CCC(c2ccc(C(=O)NCc3ccn4ccnc4c3)cc2)CC1` [Example 524, N-(imidazo[1,2-a]pyridin-7-ylmethyl)-4-{1-[(3-methylthiophen-2-yl)carbonyl]piperidin-4-yl}benzamide]: the results for the 50% inhibitory concentration (IC50) (at NAMPT; in assay [1]; in the assay on PC3 cells) were 0.169 nM, 24.7 nM and 2.46 nM, respectively.

Turning to `Cc1noc(C)c1C(=O)N1CCC(c2ccc(C(=O)NCc3ccn4ccnc4c3)cc2)CC1` [Example 525, 4-{1-[(3,5-dimethyl-1,2-oxazol-4-yl)carbonyl]piperidin-4-yl}-N-(imidazo[1,2-a]pyridin-7-ylmethyl)benzamide], the half-inhibitory concentration (IC50) stood at 0.213 nM at NAMPT, 86.4 nM in assay [1] and 6.77 nM in the assay on PC3 cells.

Consider `COc1cccc(C(=O)N2CCC(c3ccc(C(=O)NCc4ccn5ccnc5c4)cc3)CC2)c1` [Example 526, N-(imidazo[1,2-a]pyridin-7-ylmethyl)-4-[1-(3-methoxybenzoyl)piperidin-4-yl]benzamide], for which the figures for the IC50 (at NAMPT; in assay [1]; with PC3 cells) were 0.275 nM, 126 nM and 60.3 nM, respectively.

For `O=C(NCc1ccn2ccnc2c1)c1ccc(C2CCN(C(=O)c3cccc(Cl)c3)CC2)cc1` [Example 527, 4-[1-(3-chlorobenzoyl)piperidin-4-yl]-N-(imidazo[1,2-a]pyridin-7-ylmethyl)benzamide], the IC50 on NAMPT amounted to 0.265 nM; in assay [1] it was 141 nM; with PC3 cells, 59.8 nM.

Regarding `COc1ccc(C(=O)N2CCC(c3ccc(C(=O)NCc4ccn5ccnc5c4)cc3)CC2)cc1` [Example 528, N-(imidazo[1,2-a]pyridin-7-ylmethyl)-4-[1-(4-methoxybenzoyl)piperidin-4-yl]benzamide], the IC50 on NAMPT came out at 0.276 nM; in assay [1], 126 nM; in the assay with PC3 cells it was 24 nM.

For `O=C(NCc1ccn2ccnc2c1)c1ccc(C2CCN(C(=O)c3ccc(Cl)cc3)CC2)cc1` [Example 529, 4-[1-(4-chlorobenzoyl)piperidin-4-yl]-N-(imidazo[1,2-a]pyridin-7-ylmethyl)benzamide], the IC50 at NAMPT is 0.283 nM; in assay [1], 248 nM; with PC3 cells, 227 nM.

In the case of `O=C(NCc1ccn2ccnc2c1)c1ccc(C2CCN(C(=O)c3cc(F)cc(F)c3)CC2)cc1` [Example 530, 4-[1-(3,5-difluorobenzoyl)piperidin-4-yl]-N-(imidazo[1,2-a]pyridin-7-ylmethyl)benzamide], the half-maximal inhibitory concentration (IC50) on NAMPT was found to be 0.791 nM; in assay [1], 378 nM; with PC3 cells, 82.1 nM.

As for `O=C(NCc1ccn2ccnc2c1)c1ccc(C2CCN(C(=O)C3CC3)CC2)cc1` [Example 531, 4-[1-(cyclopropylcarbonyl)piperidin-4-yl]-N-(imidazo[1,2-a]pyridin-7-ylmethyl)benzamide], the IC50 at NAMPT amounted to 0.253 nM; in assay [1], 333 nM; in the assay with PC3 cells it was 52.9 nM.

With `CCC(=O)N1CCC(c2ccc(C(=O)NCc3ccn4ccnc4c3)cc2)CC1` [Example 532, N-(imidazo[1,2-a]pyridin-7-ylmethyl)-4-(1-propanoylpiperidin-4-yl)benzamide], the half-inhibitory concentration (IC50) on NAMPT turned out to be 0.178 nM; in assay [1] it was 338 nM; in the assay with PC3 cells, 92.7 nM.

For `Cn1cccc1C(=O)N1CCC(c2ccc(C(=O)NCc3ccn4ccnc4c3)cc2)CC1` [Example 533, N-(imidazo[1,2-a]pyridin-7-ylmethyl)-4-{1-[(1-methyl-1H-pyrrol-2-yl)carbonyl]piperidin-4-yl}benzamide], the results for the IC50 (on NAMPT; in assay [1]; in the assay with PC3 cells) were 0.169 nM, 101 nM and 17.4 nM, respectively.

As to `CC(C)CC(=O)N1CCC(c2ccc(C(=O)NCc3ccn4ccnc4c3)cc2)CC1` [Example 534, N-(imidazo[1,2-a]pyridin-7-ylmethyl)-4-[1-(3-methylbutanoyl)piperidin-4-yl]benzamide], the IC50 at NAMPT came out at 0.251 nM; in assay [1], 145 nM; in the assay with PC3 cells, 5.08 nM.

For `O=C(NCc1ccn2ccnc2c1)c1ccc(C2CCN(C(=O)c3ccncc3)CC2)cc1` [Example 535, N-(imidazo[1,2-a]pyridin-7-ylmethyl)-4-[1-(pyridin-4-ylcarbonyl)piperidin-4-yl]benzamide], the IC50 at NAMPT is 0.325 nM; in assay [1], 297 nM; in the assay on PC3 cells, 28.5 nM.

As to `CC(C)C(C)C(=O)N1CCC(c2ccc(C(=O)NCc3ccn4ccnc4c3)cc2)CC1` (stereo not drawn) [Example 536, 4-[1-(2,3-dimethylbutanoyl)piperidin-4-yl]-N-(imidazo[1,2-a]pyridin-7-ylmethyl)benzamide], the values for the IC50 (at NAMPT; in assay [1]; in the assay with PC3 cells) were 0.202 nM, 77.6 nM and 3.04 nM, respectively.

Regarding `O=C(NCc1ccn2ccnc2c1)c1ccc(C2CCN(C(=O)c3cccnc3)CC2)cc1` [Example 537, N-(imidazo[1,2-a]pyridin-7-ylmethyl)-4-[1-(pyridin-3-ylcarbonyl)piperidin-4-yl]benzamide], the half-maximal inhibitory concentration (IC50) on NAMPT was determined as 0.23 nM; in assay [1], 461 nM; in the assay with PC3 cells it was 43.1 nM.

Take `CC1(C(=O)N2CCC(c3ccc(C(=O)NCc4ccn5ccnc5c4)cc3)CC2)CC1` [Example 538, N-(imidazo[1,2-a]pyridin-7-ylmethyl)-4-{1-[(1-methylcyclopropyl)carbonyl]piperidin-4-yl}benzamide]: the 50% inhibitory concentration (IC50) worked out at 0.514 nM at NAMPT, 275 nM in assay [1] and 3.33 nM in the assay with PC3 cells.
